Legend:
[1] = tested on: adult patients with active PsA; assay: Phase III clinical study PALACE 3 in active psoriatic arthritis (PASI-75); type: in vivo, human; settings: patients with psoriatic involvement of at least three percent BSA
Description: (§1) The safety and efficacy of apremilast was evaluated in three multi-center, randomized, double-blind, placebo-controlled trials (Studies PALACE 1, PALACE 2, and PALACE 3) of similar design. A total of 1493 adult patients with active PsA (≧3 swollen joints and ≧3 tender joints) despite prior or current treatment with disease-modifying antirheumatic drug (DMARD) therapy were randomized. […] One qualifying psoriatic skin lesion of at least 2 cm in diameter was required in PALACE 3. Previous treatment with a biologic, including TNF-blockers was allowed.
Across the 3 studies, patients were randomly assigned to placebo (n=496), apremilast 20 mg (n=500), or apremilast 30 mg (n=497) given orally twice daily. Patients were allowed to receive stable doses of concomitant methotrexate (MTX) (≦25 mg/week), sulfasalazine (SSZ) (≦2 g/day), leflunomide (LEF) (≦20 mg/day), low dose oral corticosteroids (equivalent to ≦10 mg of prednisone a day), and/or nonsteroidal anti-inflammatory drugs (NSAIDs) during the trial. […]
The primary endpoint was the percentage of patients achieving American College of Rheumatology (ACR) 20 response at Week 16. Placebo-controlled efficacy data were collected and analyzed through Week 24. […]
Patients with psoriatic involvement of at least three percent body surface area (BSA) were evaluated for Psoriatic Area and Severity Index (PASI)-75 responses. […]

[2] = tested on: patients with psoriatic arthritis (PsA); assay: Phase II randomized, double-blind, placebo controlled, multicenter clinical study in psoriatic arthritis; settings: for Subjects reporting a serious AE (SAE): 12 week study period
Description: A phase II, randomized, double-blind, placebo controlled, multicenter clinical study was performed in North America and Europe in patients with psoriatic arthritis (PsA). […] Mean duration of PsA was 7.8 years; mean tender joint count of 22, mean swollen joint count of 10 at baseline (Moll & Wright criteria). […] Stable doses of NSAIDs, corticosteroids (≦10 mg/day prednisone or equivalent), and methotrexate were allowed.

[3] = tested on: adult patients with active PsA; assay: Phase III clinical studies PALACE 1-3, study not specified; type: in vivo, human
Description: as §1
(§2) Across the 3 studies, patients were randomly assigned to placebo (n=496), apremilast 20 mg (n=500), or apremilast 30 mg (n=497) given orally twice daily. Patients were allowed to receive stable doses of concomitant methotrexate (MTX) (≦25 mg/week), sulfasalazine (SSZ) (≦2 g/day), leflunomide (LEF) (≦20 mg/day), low dose oral corticosteroids (equivalent to ≦10 mg of prednisone a day), and/or nonsteroidal anti-inflammatory drugs (NSAIDs) during the trial. Treatment assignments were stratified based on small-molecule DMARD use at baseline. The patients who were therapeutic failures of >3 agents for PsA (small molecules or biologics), or >1 biologic TNF blocker were excluded.
(§3) The primary endpoint was the percentage of patients achieving American College of Rheumatology (ACR) 20 response at Week 16. Placebo-controlled efficacy data were collected and analyzed through Week 24. Patients with each subtype of PsA were enrolled across the 3 studies, including symmetric polyarthritis (62.0%), asymmetric oligoarthritis (26.9%), distal interphalangeal (DIP) joint arthritis (6.2%), arthritis mutilans (2.7%), and predominant spondylitis (2.1%). The median duration of PsA disease was 5 years. Patients received concomitant therapy with at least one DMARD (65.2%), MTX (54.5%), SSZ (9.0%), LEF (7.4%), low dose oral corticosteroids (13.9%), and NSAIDs (70.7%). Prior treatment with small-molecule DMARDs only was reported in 76.4% of patients and prior treatment with biologic DMARDs was reported in 22.4% of patients.

[4] = tested on: adult patients with active PsA; assay: Phase III clinical study PALACE 1 in active psoriatic arthritis; type: in vivo, human; settings: for Patients achieving remission, DAS28(CRP) less than 2.6: N=168; for Physician's global assessment of disease activity, % Change (percent improvement) / Subject's assessment of pain, % Change (percent improvement) / Subject's global assessment of disease activity, % Change (percent improvement): VAS; for Number of swollen joints, % Change (percent improvement): scale 0-76; for Number of tender joints, % Change (percent improvement): scale 0-78; for Proportion of patients with ACR 20 response / Proportion of patients with ACR 50 response / Proportion of patients with ACR 70 response: N = 168
Description: as §1, §2, §3

CCOc1cc([C@@H](CS(C)(=O)=O)N2C(=O)c3cccc(NC(C)=O)c3C2=O)ccc1OC [apremilast, (+)-2-[1-(3-ethoxy-4-methoxyphenyl)-2-methylsulfonylethyl]-4-acetylaminoisoindoline-1,3-dione]
Proportion of patients achieving PASI-75 ([1]; Week 16, 30 BID): 22.2% | Proportion of patients achieving PASI-75 ([1]; Week 24, 30 BID): 25.6% | Discontinuations due to AEs ([2]; 20 mg BID): 9% | Discontinuations due to lack of efficacy ([2]; 20 mg BID): 7% | Subjects reporting a serious AE (SAE) ([2]; 20 mg BID): 4 subjects | Primary endpoint, ACR20 at 12 weeks ([2]; 20 mg BID): met | ACR20 at 24 weeks ([2]; 20 mg BID, evaluable subjects, 24 weeks): 40% | Discontinuations due to AEs ([2]; 40 mg QD): 6% | Discontinuations due to lack of efficacy ([2]; 40 mg QD): 0% | Subjects reporting a serious AE (SAE) ([2]; 40 mg QD): 0 subjects | Primary endpoint, ACR20 at 12 weeks ([2]; 40 mg QD): met | ACR20 at 24 weeks ([2]; 40 mg QD, evaluable subjects, 24 weeks): 39.1% | Subjects reporting an SAE in the extension ([2]; active-drug extension, weeks 12-24): 7 subjects | ACR20 at 24 weeks ([2]; placebo subjects switched to 20 mg BID in the extension): 35% | ACR20 at 24 weeks ([2]; placebo subjects switched to 40 mg QD in the extension): 40% | Deaths ([2]; whole study): no deaths | Mental Component Summary score (MCS), mean change from baseline ([3]; human, in vivo): No worsening | SF-36v2 physical functioning domain and physical component summary score, change from baseline compared to placebo ([3]; human, in vivo): greater improvement | Dactylitis and enthesitis ([3]; patients with pre-existing dactylitis or enthesitis): improvement | Proportion of HAQ-DI responders (≧0.3 change from baseline) compared to placebo ([4]; Week 16): greater proportion | Patients achieving remission, DAS28(CRP) less than 2.6 ([4]; Week 16, 30 mg BID with or without DMARDs): 13.1% | CRP, % Change (percent improvement) ([4]; Week 16, 30 mg BID ± DMARDs): 12.40% | HAQ-DI score, % Change (percent improvement) ([4]; Week 16, 30 mg BID ± DMARDs): 20.00% | Physician's global assessment of disease activity, % Change (percent improvement) ([4]; Week 16, 30 mg BID ± DMARDs): 42.31% | Subject's assessment of pain, % Change (percent improvement) ([4]; Week 16, 30 mg BID ± DMARDs): 26.00% | Subject's global assessment of disease activity, % Change (percent improvement) ([4]; Week 16, 30 mg BID ± DMARDs): 20.29% | Number of swollen joints, % Change (percent improvement) ([4]; Week 16, 30 mg BID ± DMARDs): 50.00% | Number of tender joints, % Change (percent improvement) ([4]; Week 16, 30 mg BID ± DMARDs): 43.17% | ACR 20 response rate ([4]; Week 16, apremilast alone (29/62 patients)): 46.8% | ACR 20 response rate ([4]; Week 16, biologic-naive patients, concomitant with DMARD (51/124 patients)): 41.1% | ACR 20 response rate ([4]; Week 16, concomitant with DMARD (35/106 patients)): 33.0% | ACR 20 response rate ([4]; Week 16, previously treated with small molecule and/or biologic DMARD (11/41 patients)): 26.8% | Proportion of patients with ACR 20 response ([4]; Week 16, ± DMARDs): 38.1% | Proportion of patients with ACR 50 response ([4]; Week 16, ± DMARDs): 16.1% | Proportion of patients with ACR 70 response ([4]; Week 16, ± DMARDs): 4.2% | ACR 20 response rate ([4]; Week 24, 30 mg BID for up to 24 weeks, independent of response at Week 16): 43.5% | Patients achieving remission, DAS28(CRP) less than 2.6 ([4]; Week 24, 30 mg BID with or without DMARDs): 19.0% | CRP, % Change (percent improvement) ([4]; Week 24, 30 mg BID ± DMARDs): 8.45% | HAQ-DI score, % Change (percent improvement) ([4]; Week 24, 30 mg BID ± DMARDs): 20.00% | Physician's global assessment of disease activity, % Change (percent improvement) ([4]; Week 24, 30 mg BID ± DMARDs): 35.90% | Subject's assessment of pain, % Change (percent improvement) ([4]; Week 24, 30 mg BID ± DMARDs): 27.67% | Subject's global assessment of disease activity, % Change (percent improvement) ([4]; Week 24, 30 mg BID ± DMARDs): 23.92% | Number of swollen joints, % Change (percent improvement) ([4]; Week 24, 30 mg BID ± DMARDs): 50.00% | Number of tender joints, % Change (percent improvement) ([4]; Week 24, 30 mg BID ± DMARDs): 44.83% | Proportion of patients with ACR 20 response ([4]; Week 24, ± DMARDs): 35.1% | Proportion of patients with ACR 50 response ([4]; Week 24, ± DMARDs): 19.0% | Proportion of patients with ACR 70 response ([4]; Week 24, ± DMARDs): 10.1% | Change in mean HAQ-DI score from baseline ([4]; baseline to Week 16, p=0.0017 vs placebo): −0.244
